Assay results reported in patent US9663565B2, “Insulinotropic peptide derivative with modified N-terminal charge” (HANMI PHARM. CO., LTD., priority 2013, dated 2017).

Assays:
[1] = N-terminal charge at pH 7.4; assay type: physicochemical
[2] = system: GLP-1 receptor (hGLP-1R/GST); test: Binding activity with the GLP-1 receptor by surface plasmon resonance (BIACORE 3000), 1:1 Langmuir fitting; set-up: species or system human; settings: SPR, hGLP-1R/GST immobilized to CM5 chip
Source text: The expressed hGLP-1R/GST was immobilized to a CM5 chip by amine coupling. […].

GLP-1 receptor (hGLP-1R/GST), sequence (P43220 24-139 limits assumed): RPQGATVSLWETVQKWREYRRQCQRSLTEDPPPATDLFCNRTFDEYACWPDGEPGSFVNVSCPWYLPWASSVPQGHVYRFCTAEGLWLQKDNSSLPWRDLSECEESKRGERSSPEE

Substance | N-terminal charge at pH 7.4 [1] | Ka [2] | Kd [2] | kd [2]
imidazoacetyl-exendin-4 [CA-exendin-4] | Neutral | 1.20 ± 0.11 1/Ms, ×10^5 | 26.3 ± 2.08 nM | 31.5 ± 0.56 1/s, ×10^4
beta-hydroxy imidazopropionyl-exendin-4 [HY-exendin-4] | Neutral | 0.90 ± 0.07 1/Ms, ×10^5 | 42.7 ± 4.1 nM | 38.3 ± 1.92 1/s, ×10^4
DA-exendin-4-propyl-amide | Neutral | 1.04 ± 0.11 1/Ms, ×10^5 | 32.6 ± 4.17 nM | 33.5 ± 1.40 1/s, ×10^4
desamino-histidyl-exendin-4 [DA-exendin-4] | Neutral | 1.13 ± 0.08 1/Ms, ×10^5 | 32.2 ± 1.89 nM | 36.5 ± 1.40 1/s, ×10^4
